In this test the target is PI3Kδ (p110δ/p85α) (Homo sapiens (Human), UniProt O00329). Kind of test: PI3Kδ scintillation proximity assay (Example A3). Format: biochemical. To be noted: 20 μM ATP, 4 nM PI3Kδ, read-out: PI3Kδ SPA IC50. The method, then:
PI3Kδ (p110δ/p85α) was purchased from Millipore (Bedford, Mass.). ATP, MgCl2, DTT, EDTA, MOPS and CHAPS were purchased from SigmaAldrich (St. Louis, Mo.). Wheat Germ Agglutinin (WGA) YSi SPA Scintillation Beads was purchased from GE healthcare life sciences (Piscataway, N.J.). The kinase reaction was conducted in polystyrene 384-well matrix white plate from Thermo Fisher Scientific in a final volume of 25 μL. Inhibitors were first diluted serially in DMSO and added to the plate wells before the addition of other reaction components. The final concentration of DMSO in the assay was 0.5%. The PI3K assays were carried out at room temperature in 20 mM MOPS, pH 6.7, 10 mM MgCl2, 5 mM DTT and CHAPS 0.03%. Reactions were initiated by the addition of ATP, the final reaction mixture consisted of 20 μM PIP2, 20 μM ATP, 0.2 μCi [γ-^33P]ATP, 4 nM PI3Kδ. […] 25 mM EDTA, 400 μM ATP. The final concentration of SPA beads was 1.0 mg/mL. […] IC50 determination was performed by fitting the curve of percent control activity versus the log of the inhibitor concentration using the GraphPad Prism 3.0 software.

Structures are written as SMILES.

Chain of PI3Kδ (p110δ/p85α) (O00329 whole entry): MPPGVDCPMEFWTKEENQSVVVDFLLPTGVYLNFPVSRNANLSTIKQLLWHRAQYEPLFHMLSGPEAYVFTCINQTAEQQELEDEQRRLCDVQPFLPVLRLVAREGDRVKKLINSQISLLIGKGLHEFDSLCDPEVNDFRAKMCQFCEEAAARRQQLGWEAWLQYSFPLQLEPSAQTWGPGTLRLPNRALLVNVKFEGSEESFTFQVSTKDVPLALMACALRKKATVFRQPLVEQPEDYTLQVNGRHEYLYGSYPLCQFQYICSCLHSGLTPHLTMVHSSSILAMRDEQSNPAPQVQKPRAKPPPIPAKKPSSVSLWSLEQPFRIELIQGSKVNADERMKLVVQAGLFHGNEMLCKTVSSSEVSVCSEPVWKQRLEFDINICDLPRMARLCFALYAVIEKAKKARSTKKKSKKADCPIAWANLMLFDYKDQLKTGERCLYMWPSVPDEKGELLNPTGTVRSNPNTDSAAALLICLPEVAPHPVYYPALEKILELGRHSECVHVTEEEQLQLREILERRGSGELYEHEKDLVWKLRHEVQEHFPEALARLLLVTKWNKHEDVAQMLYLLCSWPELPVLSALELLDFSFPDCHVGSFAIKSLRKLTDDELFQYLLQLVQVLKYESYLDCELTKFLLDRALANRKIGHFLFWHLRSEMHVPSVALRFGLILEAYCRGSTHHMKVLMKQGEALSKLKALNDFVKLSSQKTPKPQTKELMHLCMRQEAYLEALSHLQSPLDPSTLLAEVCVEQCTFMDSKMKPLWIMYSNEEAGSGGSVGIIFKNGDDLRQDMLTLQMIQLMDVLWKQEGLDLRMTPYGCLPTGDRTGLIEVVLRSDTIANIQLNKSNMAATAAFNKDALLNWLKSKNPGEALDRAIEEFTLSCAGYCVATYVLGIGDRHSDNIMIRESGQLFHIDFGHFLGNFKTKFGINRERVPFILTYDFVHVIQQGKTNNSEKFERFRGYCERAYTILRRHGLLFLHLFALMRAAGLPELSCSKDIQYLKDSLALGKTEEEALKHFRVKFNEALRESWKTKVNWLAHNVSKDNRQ
Chain of PI3Kδ (p110δ/p85α) (P27986 whole entry partner): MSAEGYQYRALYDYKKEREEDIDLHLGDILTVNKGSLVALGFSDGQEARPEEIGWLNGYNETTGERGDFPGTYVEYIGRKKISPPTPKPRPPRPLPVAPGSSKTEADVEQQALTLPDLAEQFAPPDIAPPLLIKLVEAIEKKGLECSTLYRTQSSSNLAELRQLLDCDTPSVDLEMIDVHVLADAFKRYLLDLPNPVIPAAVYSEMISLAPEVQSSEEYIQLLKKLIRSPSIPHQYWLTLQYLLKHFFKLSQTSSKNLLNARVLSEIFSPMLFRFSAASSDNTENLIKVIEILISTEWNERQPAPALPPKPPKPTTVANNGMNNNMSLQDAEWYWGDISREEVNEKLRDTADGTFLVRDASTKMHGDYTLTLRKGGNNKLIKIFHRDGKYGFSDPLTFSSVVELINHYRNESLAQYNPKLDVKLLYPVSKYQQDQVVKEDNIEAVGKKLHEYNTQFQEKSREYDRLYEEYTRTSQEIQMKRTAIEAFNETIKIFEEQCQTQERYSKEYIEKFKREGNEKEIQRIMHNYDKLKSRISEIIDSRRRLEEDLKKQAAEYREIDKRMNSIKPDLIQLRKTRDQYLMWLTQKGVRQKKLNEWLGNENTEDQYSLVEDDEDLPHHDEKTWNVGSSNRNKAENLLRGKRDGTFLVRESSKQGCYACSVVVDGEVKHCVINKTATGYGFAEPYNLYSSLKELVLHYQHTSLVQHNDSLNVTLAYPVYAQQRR

As for `CCOc1c(C(C)n2nc(C)c3c(N)ncnc32)cc(Cl)c(C#N)c1-c1ccc(C(=O)NC)nc1` (stereo not shown) [Example 333, 5-{3-[1-(4-amino-3-methyl-1H-pyrazolo[3,4-d]pyrimidin-1-yl)ethyl]-5-chloro-6-cyano-2-ethoxyphenyl}-N-methylpyridine-2-carboxamide], the IC50 (usually the concentration that gives 50% inhibition) was below 10 nM.

(Values after patent publication US10646492B2, “Heterocyclylamines as PI3K inhibitors” (Incyte Corporation, priority 2011, dated 2020).)
